Data as given in PMC11206988, “Study on the Effect of Pharmaceutical Excipient PEG400 on the Pharmacokinetics of Baicalin in Cells Based on MRP2, MRP3, and BCRP Efflux Transporters” (Pharmaceutics, 2024).

What was measured:
HepG2 cells = test: Pharmacokinetic study of baicalin in HepG2 cells (intracellular concentrations by UPLC-MS/MS); assay type: in vitro ADME, human; conditions: for AUC0–t increase compared with the control group: HepG2 cells
Experimental: (§1) The samples were quantified by UPLC-MS/MS, which consisted of a Dionex Ultimate 3000 UPLC system (Thermo Fisher Scientific, Waltham, MA, USA) and a triple quadrupole tandem mass spectrometer (Thermo Fisher Scientific, Waltham, MA, USA). The mass spectrometry was performed using an ESI ion source and in positive ion mode. The chromatograms are shown in Figure S1 of the Supplementary Materials. The samples were analyzed by a Waters XBridge BEH C18 column (2.1 × 100 mm). Mobile phase A consists of acetonitrile, while mobile phase B consists of water containing 0.1% formic acid. The elution program was as follows: B was initially 90%, 0 to 9 min B decreased from 90% to 27%, and 9.1 min to 12 min increased from 27% to 90% B. The flow rate of the mobile phase was 0.3 mL/min, the temperature of the automatic injector was 5 °C, and the injection volume was 10 μL. The m/z for BG and B6G was 447 → 271, for baicalein m/z 271 → 123, and for genistein (IS) m/z 271 → 153. Other mass spectrometry parameters included sheath gas (Arb) pressure, 20 psi, and auxiliary gas (Arb) pressure, 2 psi; source voltage, 4.8 KV, and capillary voltage, 2.5 KV; and ion-transfer-tube temperature, 375 °C, and atomization temperature, 275 °C.
(§2) HepG2 cells were cultured at a density of 1×10^5 cells/mL in 12-well plates for 24 h to facilitate the conduct of cellular pharmacokinetic experiments. The old medium was aspirated and discarded, the wells were rinsed twice with PBS, and 1 mL of 100 μM baicalin and baicalin + PEG400 (0.25%, 0.5%, and 1%) was added into 12-well plates to initiate the timer. The culture was terminated after 0.25 h, 0.5 h, 1 h, 2 h, 4 h, 6 h, 8 h, 10 h, 12 h, and 24 h, respectively. Upon reaching the designated time for administration, the cell culture medium was removed, and the wells were washed with 1 mL of cold PBS solution. Subsequently, 240 μL of ultra-pure water were added to each well, and the sample was stored at −80 °C until analysis. The sample was subjected to sonication in an ice bath for 10 min in order to lyse the cells, thereby enabling the determination of the accumulated drug concentration within the cells. Subsequently, 20 μL of the cell lysate was collected, and the protein concentration was quantified using a BCA kit for normalization.
(§3) After repeated freeze-thaw lysis, 100 μL of cell samples were taken, and 300 μL of 0.2% formic acid acetonitrile (containing 200 ng/mL genistein) were added to the vortex for 10 min to precipitate proteins and then centrifuged at 14,000 r/min for 10 min. Then the supernatant was blown dry under nitrogen at 40 °C and then reconstituted with 200 μL of methanol and centrifuged at 14,000 rpm for 10 min. The supernatant was subjected to UPLC-MS/MS analysis.

[1] = as above; assay type: in vitro ADME, human; conditions: human, intracellular; for AUC(0-t) at 100 μM / Cmax at 100 μM / half-life at 100 μM: HepG2 cells
Experimental: as §1, §2, §3

[2] = HepG2 cells given 100 μM baicalin + H PEG400 (1%)
[3] = HepG2 cells given 100 μM baicalin + L PEG400 (0.25%)
[4] = HepG2 cells given 100 μM baicalin + M PEG400 (0.5%)
[5] = HepG2 cells given 100 μM baicalin alone (group BG, control)

O=C(O)[C@H]1O[C@@H](Oc2c(O)cc3oc(-c4ccccc4)cc(=O)c3c2O)[C@H](O)[C@@H](O)[C@@H]1O [B6G, Baicalein-6-O-β-D-glucuronide]
Tmax (HepG2 cells; human): 6.00 h
t1/2 (HepG2 cells; human): 5.19 ± 2.37 h

O=c1cc(-c2ccccc2)oc2cc(O)c(O)c(O)c12 [B, baicalein]
AUC0–t increase compared with the control group (HepG2 cells; baicalin + high PEG400 (1%) vs baicalin alone): 1.27 fold
AUC0–t increase compared with the control group (HepG2 cells; baicalin + low PEG400 (0.25%) vs baicalin alone): 1.26 fold
AUC0–t increase compared with the control group (HepG2 cells; baicalin + medium PEG400 (0.5%) vs baicalin alone): 1.23 fold
AUC(0-t) at 100 μM [1, 2]: 5.64 ± 0.07 µg·h/mL
Cmax at 100 μM [1, 2]: 0.51 ± 0.01 µg/mL
half-life at 100 μM [1, 2]: 6.43 ± 1.85 h
AUC(0-t) at 100 μM [1, 3]: 5.61 ± 0.09 µg·h/mL
Cmax at 100 μM [1, 3]: 0.55 ± 0.07 µg/mL
half-life at 100 μM [1, 3]: 3.73 ± 0.54 h
AUC(0-t) at 100 μM [1, 4]: 5.48 ± 0.118 µg·h/mL
Cmax at 100 μM [1, 4]: 0.53 ± 0.06 µg/mL
half-life at 100 μM [1, 4]: 9.4 ± 8.73 h
Cmax at 100 μM [1, 5]: 0.35 ± 0.12 µg/mL
half-life at 100 μM [1, 5]: 17.6 ± 7.99 h
AUC(0-t) at 100 μM ([1]; HepG2 cells given 100 μM baicalin alone (group BG, control), 0.25-24 h): 4.45 ± 0.06 µg·h/mL
Tmax at 100 μM [1, 5]: 6 h
